Test results reported in ChEMBL document CHEMBL3813616, “Discovery of novel 7-azaindoles as PDK1 inhibitors” (Bioorg Med Chem Lett, 2016).

Assays:
[1] = target: Ribosomal protein S6 kinase alpha-1 (Homo sapiens) (UniProt Q15418); assay: Inhibition of human MAPKAPK1alpha (1 to 735 residues) assessed as enzyme activity at 1 uM using 33P ATP by radioactive filter binding assay; parameters: scale not given: the % may be the effect or the level left
[2] = target: Rho-associated protein kinase 2 (Rattus norvegicus) (UniProt Q62868); assay: Inhibition of rat ROCK2 (2 to 543 residues) assessed as enzyme activity at 1 uM using 33P ATP by radioactive filter binding assay; parameters: scale not given: the % may be the effect or the level left
[3] = target: T1, Serine/threonine-protein kinase Chk1 (Homo sapiens) (UniProt O14757); assay: Inhibition of human CHK1 (1 to 476 residues) assessed as enzyme activity at 1 uM using 33P ATP by radioactive filter binding assay; parameters: scale not given: the % may be the effect or the level left
T1 sequence (whole entry): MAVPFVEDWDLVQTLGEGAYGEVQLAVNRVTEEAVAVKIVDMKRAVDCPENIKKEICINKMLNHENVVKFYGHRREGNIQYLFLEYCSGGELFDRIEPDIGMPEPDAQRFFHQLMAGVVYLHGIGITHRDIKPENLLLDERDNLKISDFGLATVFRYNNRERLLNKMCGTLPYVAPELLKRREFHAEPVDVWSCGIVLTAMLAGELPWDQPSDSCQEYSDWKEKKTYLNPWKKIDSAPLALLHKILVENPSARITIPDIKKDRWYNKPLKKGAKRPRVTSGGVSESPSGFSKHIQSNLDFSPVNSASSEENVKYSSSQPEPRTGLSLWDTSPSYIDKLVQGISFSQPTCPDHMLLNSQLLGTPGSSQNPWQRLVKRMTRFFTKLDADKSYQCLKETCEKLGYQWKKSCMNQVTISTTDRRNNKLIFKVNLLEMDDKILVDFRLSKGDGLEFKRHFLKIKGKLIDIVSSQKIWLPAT

[4] = target: Mitogen-activated protein kinase 11 (Homo sapiens) (UniProt Q15759); assay: Inhibition of SAPK2b (unknown origin) assessed as enzyme activity at 1 uM using 33P ATP by radioactive filter binding assay; parameters: scale not given: the % may be the effect or the level left
Mitogen-activated protein kinase 11 (Homo sapiens), sequence (Q15759 whole entry, the tested form may be a part): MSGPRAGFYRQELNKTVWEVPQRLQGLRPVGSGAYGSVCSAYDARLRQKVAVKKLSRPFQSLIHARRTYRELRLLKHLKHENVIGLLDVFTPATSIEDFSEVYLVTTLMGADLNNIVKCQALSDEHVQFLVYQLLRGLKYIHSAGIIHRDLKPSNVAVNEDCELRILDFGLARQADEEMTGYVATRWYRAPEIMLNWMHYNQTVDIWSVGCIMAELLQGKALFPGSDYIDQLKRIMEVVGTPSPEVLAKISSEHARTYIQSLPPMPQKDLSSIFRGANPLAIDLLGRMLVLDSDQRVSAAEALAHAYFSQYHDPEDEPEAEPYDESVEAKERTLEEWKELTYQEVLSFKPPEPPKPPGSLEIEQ

[5] = target: RAC-beta serine/threonine-protein kinase (Homo sapiens) (UniProt P31751); assay: Inhibition of human PKBbeta (120 to 481 residues) assessed as enzyme activity at 1 uM using 33P ATP by radioactive filter binding assay; parameters: scale not given: the % may be the effect or the level left
RAC-beta serine/threonine-protein kinase (Homo sapiens), sequence (P31751 whole entry, the tested form may be a part): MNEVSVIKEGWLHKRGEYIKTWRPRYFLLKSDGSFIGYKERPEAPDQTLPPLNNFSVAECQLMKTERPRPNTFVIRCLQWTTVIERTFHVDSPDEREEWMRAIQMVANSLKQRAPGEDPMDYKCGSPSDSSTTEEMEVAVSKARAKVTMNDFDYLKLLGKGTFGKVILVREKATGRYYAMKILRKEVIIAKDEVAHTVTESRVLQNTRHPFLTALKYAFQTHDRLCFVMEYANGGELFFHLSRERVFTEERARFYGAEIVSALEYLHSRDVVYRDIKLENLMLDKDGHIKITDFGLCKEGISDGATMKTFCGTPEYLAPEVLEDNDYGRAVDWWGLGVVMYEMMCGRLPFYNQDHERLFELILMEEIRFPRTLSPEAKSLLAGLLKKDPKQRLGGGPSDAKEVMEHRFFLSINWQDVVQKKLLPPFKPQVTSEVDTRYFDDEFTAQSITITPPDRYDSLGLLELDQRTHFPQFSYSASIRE

[6] = target: T2, Mitogen-activated protein kinase 12 (Homo sapiens) (UniProt P53778); assay: Inhibition of SAPK3 (unknown origin) assessed as enzyme activity at 1 uM using 33P ATP by radioactive filter binding assay; parameters: scale not given: the % may be the effect or the level left
T2 sequence (whole entry): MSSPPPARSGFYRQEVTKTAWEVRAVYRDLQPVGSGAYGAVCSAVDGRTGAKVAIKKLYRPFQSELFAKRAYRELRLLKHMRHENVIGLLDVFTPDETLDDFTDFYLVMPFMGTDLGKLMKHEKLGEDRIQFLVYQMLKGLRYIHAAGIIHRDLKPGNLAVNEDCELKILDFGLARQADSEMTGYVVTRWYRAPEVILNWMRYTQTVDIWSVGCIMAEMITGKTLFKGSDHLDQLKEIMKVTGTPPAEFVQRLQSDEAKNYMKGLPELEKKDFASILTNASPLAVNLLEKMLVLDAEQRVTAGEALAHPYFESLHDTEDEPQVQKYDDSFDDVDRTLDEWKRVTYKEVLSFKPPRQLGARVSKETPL

[7] = target: T3, Phosphatidylinositol 4,5-bisphosphate 3-kinase catalytic subunit delta isoform (Homo sapiens, UniProt O00329); assay: Inhibition of PI3K delta (unknown origin)
T3 sequence (O00329 whole entry): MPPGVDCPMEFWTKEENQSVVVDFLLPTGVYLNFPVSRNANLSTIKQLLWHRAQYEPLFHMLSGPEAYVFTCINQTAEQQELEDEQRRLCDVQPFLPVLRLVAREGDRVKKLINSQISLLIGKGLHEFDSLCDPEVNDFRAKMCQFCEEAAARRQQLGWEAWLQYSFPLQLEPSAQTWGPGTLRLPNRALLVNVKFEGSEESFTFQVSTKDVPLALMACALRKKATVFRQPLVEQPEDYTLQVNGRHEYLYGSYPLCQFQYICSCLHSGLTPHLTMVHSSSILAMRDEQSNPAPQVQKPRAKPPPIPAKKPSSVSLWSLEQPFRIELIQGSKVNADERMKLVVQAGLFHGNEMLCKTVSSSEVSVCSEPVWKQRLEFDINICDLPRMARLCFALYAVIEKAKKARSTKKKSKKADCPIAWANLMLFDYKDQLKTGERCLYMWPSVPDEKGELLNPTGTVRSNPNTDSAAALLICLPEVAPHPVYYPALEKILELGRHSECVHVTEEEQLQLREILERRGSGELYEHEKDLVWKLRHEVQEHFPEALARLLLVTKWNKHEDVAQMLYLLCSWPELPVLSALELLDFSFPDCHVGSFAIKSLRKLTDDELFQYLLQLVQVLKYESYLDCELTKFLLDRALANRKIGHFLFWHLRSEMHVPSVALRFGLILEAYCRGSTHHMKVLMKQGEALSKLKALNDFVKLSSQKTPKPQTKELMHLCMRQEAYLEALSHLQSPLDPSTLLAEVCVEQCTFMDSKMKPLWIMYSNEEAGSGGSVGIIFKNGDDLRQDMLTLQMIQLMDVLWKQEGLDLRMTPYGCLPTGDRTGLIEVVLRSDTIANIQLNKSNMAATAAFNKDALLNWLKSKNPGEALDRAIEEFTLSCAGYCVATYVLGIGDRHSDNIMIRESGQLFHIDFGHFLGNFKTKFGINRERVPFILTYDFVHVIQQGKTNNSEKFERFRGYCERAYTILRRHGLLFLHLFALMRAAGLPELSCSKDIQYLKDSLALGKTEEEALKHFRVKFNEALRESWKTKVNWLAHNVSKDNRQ

[8] = target: Ribosomal protein S6 kinase alpha-5 (Homo sapiens) (UniProt O75582); assay: Inhibition of human MSK1 (2 to 802 residues) assessed as enzyme activity at 1 uM using 33P ATP by radioactive filter binding assay; parameters: scale not given: the % may be the effect or the level left
Ribosomal protein S6 kinase alpha-5 (Homo sapiens), sequence (O75582 whole entry, looked up, the tested form may be a part): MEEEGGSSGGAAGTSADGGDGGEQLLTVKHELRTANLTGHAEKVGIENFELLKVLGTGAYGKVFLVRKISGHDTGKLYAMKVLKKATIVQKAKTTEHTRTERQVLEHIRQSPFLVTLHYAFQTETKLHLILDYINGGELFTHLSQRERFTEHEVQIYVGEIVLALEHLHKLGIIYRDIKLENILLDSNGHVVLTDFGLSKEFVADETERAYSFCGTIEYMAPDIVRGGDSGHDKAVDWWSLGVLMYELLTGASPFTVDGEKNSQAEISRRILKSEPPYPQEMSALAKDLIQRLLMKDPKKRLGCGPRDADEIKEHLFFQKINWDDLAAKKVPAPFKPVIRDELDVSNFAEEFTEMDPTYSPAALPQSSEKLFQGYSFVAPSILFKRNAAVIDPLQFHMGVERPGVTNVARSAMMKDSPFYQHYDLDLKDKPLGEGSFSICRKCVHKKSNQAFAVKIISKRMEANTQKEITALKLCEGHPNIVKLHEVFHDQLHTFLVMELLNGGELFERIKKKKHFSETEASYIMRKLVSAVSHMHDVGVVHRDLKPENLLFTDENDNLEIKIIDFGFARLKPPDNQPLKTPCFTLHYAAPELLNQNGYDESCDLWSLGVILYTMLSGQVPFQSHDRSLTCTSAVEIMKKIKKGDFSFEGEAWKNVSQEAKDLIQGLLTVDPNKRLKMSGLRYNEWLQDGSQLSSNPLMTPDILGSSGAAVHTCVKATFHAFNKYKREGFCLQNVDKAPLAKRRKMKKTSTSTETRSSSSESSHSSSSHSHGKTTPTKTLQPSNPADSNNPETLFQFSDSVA

[9] = target: AMP-activated protein kinase, AMPK (Homo sapiens) (UniProt P54646+O43741+P54619+Q9UGJ0+Q9Y478+Q13131+Q9UGI9); assay: Inhibition of human AMPK assessed as enzyme activity at 1 uM using 33P ATP by radioactive filter binding assay; type: protein-complex assay; parameters: scale not given: the % may be the effect or the level left
[10] = target: Mitogen-activated protein kinase 1 (Homo sapiens) (UniProt P28482); assay: Inhibition of human MAPK2 (2 to 360 residues) assessed as enzyme activity at 1 uM using 33P ATP by radioactive filter binding assay; parameters: scale not given: the % may be the effect or the level left
Mitogen-activated protein kinase 1 (Homo sapiens), sequence (P28482 whole entry, the tested form may be a part): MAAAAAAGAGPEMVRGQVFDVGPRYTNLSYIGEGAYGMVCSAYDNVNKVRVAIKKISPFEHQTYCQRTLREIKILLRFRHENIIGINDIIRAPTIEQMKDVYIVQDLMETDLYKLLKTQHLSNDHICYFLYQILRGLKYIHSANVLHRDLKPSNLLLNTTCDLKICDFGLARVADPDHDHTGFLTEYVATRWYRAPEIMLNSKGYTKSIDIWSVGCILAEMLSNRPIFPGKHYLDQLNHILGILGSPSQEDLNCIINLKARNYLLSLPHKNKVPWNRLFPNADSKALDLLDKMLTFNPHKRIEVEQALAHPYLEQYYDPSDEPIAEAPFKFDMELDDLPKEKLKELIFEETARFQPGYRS

[11] = target: Tyrosine-protein kinase SYK (Homo sapiens) (UniProt P43405); assay: Inhibition of human SYK (1 to 635 residues) assessed as enzyme activity at 1 uM using 33P ATP by radioactive filter binding assay; parameters: scale not given: the % may be the effect or the level left
[12] = target: Myosin light chain kinase, smooth muscle (Homo sapiens) (UniProt Q15746); assay: Inhibition of human smMLCK (475 to 838 residues) assessed as enzyme activity at 1 uM using 33P ATP by radioactive filter binding assay; parameters: scale not given: the % may be the effect or the level left
Myosin light chain kinase, smooth muscle (Homo sapiens), sequence (Q15746 whole entry, the tested form may be a part): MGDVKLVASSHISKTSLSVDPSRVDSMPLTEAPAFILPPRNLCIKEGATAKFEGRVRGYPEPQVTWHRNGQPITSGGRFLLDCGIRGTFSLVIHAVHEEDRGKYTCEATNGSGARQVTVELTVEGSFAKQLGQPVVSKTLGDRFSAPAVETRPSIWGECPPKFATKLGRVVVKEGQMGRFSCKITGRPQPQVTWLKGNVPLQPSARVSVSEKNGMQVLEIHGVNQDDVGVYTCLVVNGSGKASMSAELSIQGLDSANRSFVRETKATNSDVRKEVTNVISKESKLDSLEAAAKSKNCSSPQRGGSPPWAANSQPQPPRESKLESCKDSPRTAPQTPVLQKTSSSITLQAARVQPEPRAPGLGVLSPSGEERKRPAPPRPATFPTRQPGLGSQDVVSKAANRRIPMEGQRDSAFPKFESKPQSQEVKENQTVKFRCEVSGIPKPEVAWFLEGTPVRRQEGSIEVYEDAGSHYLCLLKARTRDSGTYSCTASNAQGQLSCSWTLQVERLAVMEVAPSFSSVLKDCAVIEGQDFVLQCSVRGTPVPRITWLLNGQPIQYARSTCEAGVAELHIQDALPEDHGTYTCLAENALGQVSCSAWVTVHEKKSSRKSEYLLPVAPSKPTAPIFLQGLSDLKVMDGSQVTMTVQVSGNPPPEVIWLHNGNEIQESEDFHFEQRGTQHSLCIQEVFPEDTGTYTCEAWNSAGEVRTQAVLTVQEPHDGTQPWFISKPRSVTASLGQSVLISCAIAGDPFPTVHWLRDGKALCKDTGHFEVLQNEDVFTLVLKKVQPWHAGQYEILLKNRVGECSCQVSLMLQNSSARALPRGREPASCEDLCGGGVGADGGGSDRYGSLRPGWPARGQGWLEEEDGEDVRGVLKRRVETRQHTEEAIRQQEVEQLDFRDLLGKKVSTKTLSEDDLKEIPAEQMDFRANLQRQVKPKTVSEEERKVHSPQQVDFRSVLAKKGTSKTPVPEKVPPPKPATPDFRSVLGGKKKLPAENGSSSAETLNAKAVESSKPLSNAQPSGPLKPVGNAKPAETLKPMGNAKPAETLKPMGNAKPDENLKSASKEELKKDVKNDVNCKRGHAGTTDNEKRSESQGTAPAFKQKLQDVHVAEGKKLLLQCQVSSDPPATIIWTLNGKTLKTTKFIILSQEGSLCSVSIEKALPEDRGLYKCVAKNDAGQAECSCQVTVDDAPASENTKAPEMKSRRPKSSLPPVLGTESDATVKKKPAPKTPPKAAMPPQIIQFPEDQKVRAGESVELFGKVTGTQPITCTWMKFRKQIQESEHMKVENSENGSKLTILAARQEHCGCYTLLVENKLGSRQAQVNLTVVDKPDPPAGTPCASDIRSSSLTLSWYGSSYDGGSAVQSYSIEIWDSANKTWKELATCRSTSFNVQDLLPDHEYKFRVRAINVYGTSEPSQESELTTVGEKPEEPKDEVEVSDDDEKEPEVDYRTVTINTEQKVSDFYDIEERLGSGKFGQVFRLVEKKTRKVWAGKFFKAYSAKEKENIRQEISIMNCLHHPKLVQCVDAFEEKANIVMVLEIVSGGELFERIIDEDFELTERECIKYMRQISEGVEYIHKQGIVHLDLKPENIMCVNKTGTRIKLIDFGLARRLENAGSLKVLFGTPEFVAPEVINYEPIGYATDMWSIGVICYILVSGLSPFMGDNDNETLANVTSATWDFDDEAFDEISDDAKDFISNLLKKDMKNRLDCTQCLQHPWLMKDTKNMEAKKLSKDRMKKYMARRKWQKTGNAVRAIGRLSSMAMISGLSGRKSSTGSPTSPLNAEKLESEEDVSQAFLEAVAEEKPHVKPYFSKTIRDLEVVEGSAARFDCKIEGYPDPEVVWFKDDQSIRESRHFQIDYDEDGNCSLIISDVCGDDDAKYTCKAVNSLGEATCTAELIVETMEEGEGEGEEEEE

[13] = target: Mitogen-activated protein kinase 3 (Homo sapiens) (UniProt P27361); assay: Inhibition of human MAPK3 (2 to 544 residues) assessed as enzyme activity at 1 uM using 33P ATP by radioactive filter binding assay; parameters: scale not given: the % may be the effect or the level left
Mitogen-activated protein kinase 3 (Homo sapiens), sequence (P27361 whole entry, the tested form may be a part): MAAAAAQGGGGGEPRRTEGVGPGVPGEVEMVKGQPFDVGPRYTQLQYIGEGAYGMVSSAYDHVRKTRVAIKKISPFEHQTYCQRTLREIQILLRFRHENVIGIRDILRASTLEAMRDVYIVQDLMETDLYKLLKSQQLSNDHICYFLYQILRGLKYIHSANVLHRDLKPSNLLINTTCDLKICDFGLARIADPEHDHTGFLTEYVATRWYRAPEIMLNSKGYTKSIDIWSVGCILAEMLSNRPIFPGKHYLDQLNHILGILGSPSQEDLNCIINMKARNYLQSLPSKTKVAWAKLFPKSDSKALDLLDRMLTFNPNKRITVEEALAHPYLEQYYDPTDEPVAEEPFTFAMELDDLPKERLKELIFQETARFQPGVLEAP

Ribosomal protein S6 kinase alpha-1 (Homo sapiens), sequence (Q15418 whole entry, the tested form may be a part): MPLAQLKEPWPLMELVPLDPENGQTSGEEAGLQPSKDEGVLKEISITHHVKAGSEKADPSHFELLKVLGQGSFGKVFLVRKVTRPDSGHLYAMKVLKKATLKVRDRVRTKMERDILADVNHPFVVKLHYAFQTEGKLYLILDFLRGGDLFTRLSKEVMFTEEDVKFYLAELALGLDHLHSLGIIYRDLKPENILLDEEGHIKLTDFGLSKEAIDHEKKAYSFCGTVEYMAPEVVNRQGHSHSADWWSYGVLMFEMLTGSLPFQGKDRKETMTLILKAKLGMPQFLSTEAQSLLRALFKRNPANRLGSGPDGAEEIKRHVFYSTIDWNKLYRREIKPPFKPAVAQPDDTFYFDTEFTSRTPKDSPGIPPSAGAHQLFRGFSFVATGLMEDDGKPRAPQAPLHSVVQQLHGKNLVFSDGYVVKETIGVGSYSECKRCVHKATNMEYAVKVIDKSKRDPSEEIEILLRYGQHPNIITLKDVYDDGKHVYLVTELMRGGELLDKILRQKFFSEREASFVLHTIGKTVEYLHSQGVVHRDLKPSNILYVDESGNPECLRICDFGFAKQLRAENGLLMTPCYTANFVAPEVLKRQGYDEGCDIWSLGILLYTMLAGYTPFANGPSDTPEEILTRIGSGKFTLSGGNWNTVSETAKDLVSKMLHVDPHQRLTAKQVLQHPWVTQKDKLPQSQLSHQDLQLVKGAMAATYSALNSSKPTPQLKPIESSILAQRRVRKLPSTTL

Activity [1]	Activity [2]	Activity [3]	Activity [4]	Activity [5]	Activity [6]	IC50 [7]	Activity [8]	Activity [9]	Activity [10]	Activity [11]	Activity [12]	Activity [13]	SMILES
-56%	-93%	-2%	-5%	-3%	-57%	> 10 µM	-46%	-6%	-9%	-9%	-10%	-54%	CCCCc1cc(-c2c[nH]c3ncccc23)nc(N)n1
-82%	-97%	-6%	-4%	-9%	-59%	> 10 µM	-49%	-11%	-21%	12%	-35%	-77%	Nc1nccc(-c2c[nH]c3ncccc23)n1 [MERIOLIN 1]
-88%	-80%	-79%	-21%	-21%	-42%	4 µM	-56%	-69%	-30%	-69%	-72%	-97%	CCCCc1cc(-c2c[nH]c3ncc(-c4cnn(C5CCNCC5)c4)cc23)nc(N)n1
-86%	-65%	-89%	-18%	3%	-45%		-43%	-54%	-32%		-40%	-95%	CCc1cc(-c2c[nH]c3ncc(-c4cnn(C5CCNCC5)c4)cc23)nc(N)n1
